Test results as given in patent publication US9409952B2, “Peptide-compound cyclization method” (Chugai Seiyaku Kabushiki Kaisha, priority 2011, dated 2016).
Where two headings read alike, the source gives them in different places. Starred links: 1 amine or outer side, 2 acyl side, 3 side chain; linkers in the order of their positions; H or OH if unused. Positions of bridges follow the written chain, without caps; N, C: chain ends. Non-standard residues stand in square brackets, D forms with d. Residues, ends and D or L forms follow the SMILES beside them. *: point of attachment. Phe(4-(CH2)5CO) = O=C([C@H](Cc1ccc(CCCCCC(=O)[*:3])cc1)N[*:1])[*:2]; NMeF = CN[C@@H](Cc1ccccc1)C(=O)O; NMeI = CC[C@H](C)[C@H](NC)C(=O)O; NMeβAla = CN(CCC(=O)[*:2])[*:1]; NMeL = CN[C@@H](CC(C)C)C(=O)O; NMeV = CN[C@H](C(=O)O)C(C)C; NMeA = CN[C@@H](C)C(=O)O; Piperidide = C1CCN(*)CC1; dNMeA = CN[C@H](C)C(=O)O; Sar = CNCC(=O)O; tBu = CC(C)(C)*

How the values were obtained:
[1] = PAMPA (parallel artificial membrane permeability assay); type: in vitro ADME; conditions: for Papp at 18 hours, 50 µM: PAMPA
In short: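 Artificial membrane was 10% (w/v) egg lecithin plus 0.5% (w/v) cholesterol in dodecane on a PVDF filter. A 10 mM DMSO stock was added at 0.5% (v/v) to donor buffer (50 mM MOPSO, pH 6.5, 5.0% glycocholic acid). After 18 h at 37 °C, LC/MS or LC/UV gave donor and acceptor levels for Pe.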

[2] = Metabolic stability in human hepatic microsome; type: in vitro ADME; conditions: microsomes
[3] = membrane permeation rate (Pe), 50 mM MOPSO buffer pH 6.5 with 5.0% glycocholic acid, 37° C., 18 hours, read-out: iPAMPA Pe
[4] = pH 7.4, human hepatic microsome, NADPH(+), read-out: CL NADPH(+)

CC[C@H](C)[C@H]1C(=O)N(C)[C@@H](C)C(=O)N(C)[C@@H](CC(C)C)C(=O)N[C@@H](COC(C)(C)C)C(=O)N(C)[C@@H](CC(C)C)C(=O)N[C@H](C(=O)N2CCCCC2)CC(=O)N(C)[C@@H](C)C(=O)N(C)[C@@H](Cc2ccccc2)C(=O)N[C@@H](C)C(=O)N(C)[C@@H](CC(C)C)C(=O)N[C@@H]([C@@H](C)O)C(=O)N[C@@H](Cc2ccccc2)C(=O)N1C [DP-90] ([NMeA][NMeF]A[NMeL]TF[NMeI][NMeA][NMeL]S(tBu)[NMeL]D-Piperidide; lactam N-12)
Papp at 18 hours, 50 µM [1, 3]: 9.1 ×10⁻⁶ cm/s
microsomal CLint at 1 uM [2, 4]: 30 µL/min/mg

CC[C@H](C)[C@H]1C(=O)N[C@@H]([C@@H](C)O)C(=O)N(C)CC(=O)N(C)[C@@H](CC(C)C)C(=O)N[C@H](C(=O)N2CCCCC2)Cc2ccc(cc2)CCCCCC(=O)N[C@@H](CC(C)C)C(=O)N(C)[C@@H](CC(C)C)C(=O)N(C)[C@@H](Cc2ccccc2)C(=O)N[C@@H](C)C(=O)N(C)[C@@H](Cc2ccccc2)C(=O)N1C [DP-856] (L[NMeL][NMeF]A[NMeF][NMeI]T[Sar][NMeL][Phe(4-(CH2)5CO)]-Piperidide; lactam N-10)
Papp at 18 hours, 50 µM [1, 3]: 0.44 ×10⁻⁶ cm/s
microsomal CLint at 1 uM [2, 4]: 183 µL/min/mg

CC[C@H](C)[C@@H]1NC(=O)[C@H](Cc2ccccc2)NC(=O)[C@H](CC(C)C)NC(=O)[C@@H](C)NC(=O)C[C@@H](C(=O)N2CCCCC2)NC(=O)[C@H](Cc2ccccc2)NC(=O)[C@H](CC(C)C)NC(=O)[C@H]([C@@H](C)O)NC(=O)[C@H](Cc2ccccc2)NC(=O)[C@H](CC(C)C)NC1=O [DP-515] ([dA]LFILFTLFD-Piperidide; lactam N-10)
iPAMPA Pe ([1]; membrane permeation rate (Pe), 50 mM MOPSO buffer pH 6.5 with 5.0% glycocholic acid, 37° C., 18 hours): 1.0E−07
microsomal CLint at 1 uM [2, 4]: 23 µL/min/mg

CC[C@H](C)[C@@H]1NC(=O)[C@H](CC(C)C)N(C)C(=O)[C@H](Cc2ccccc2)N(C)C(=O)[C@H](CC(C)C)NC(=O)CCCCCc2ccc(cc2)C[C@@H](C(=O)N2CCCCC2)NC(=O)[C@H](C)N(C)C(=O)[C@H](C)N(C)C(=O)CN(C)C(=O)[C@H]([C@@H](C)O)NC(=O)[C@H](Cc2ccccc2)N(C)C(=O)[C@H](C(C)C)N(C)C1=O [DP-875] (L[NMeF][NMeL]I[NMeV][NMeF]T[Sar][NMeA][NMeA][Phe(4-(CH2)5CO)]-Piperidide; lactam N-11)
Papp at 18 hours, 50 µM [1, 3]: 19 ×10⁻⁶ cm/s
microsomal CLint at 1 uM [2, 4]: 34 µL/min/mg

CC(C)C[C@H]1C(=O)N[C@@H](C(C)C)C(=O)N(C)[C@@H](Cc2ccccc2)C(=O)N(C)[C@@H](C)C(=O)N[C@@H](Cc2ccccc2)C(=O)N[C@H](C(=O)N(C)[C@@H](Cc2ccccc2)C(=O)N[C@@H](C)C(=O)N2CCCCC2)CC(=O)N(C)CCC(=O)N[C@@H]([C@@H](C)O)C(=O)N(C)CC(=O)N1C [DP-200] ([NMeβAla]T[Sar][NMeL]V[NMeF][NMeA]FD[NMeF]A-Piperidide; lactam N-9)
Papp at 18 hours, 50 µM [1, 3]: 22 ×10⁻⁶ cm/s
microsomal CLint at 1 uM [2, 4]: 57 µL/min/mg

CC[C@H](C)[C@H](NC(=O)[C@@H](NC(=O)[C@H](Cc1ccccc1)NC(=O)[C@H](CC(C)C)N(C)C(=O)[C@@H](NC(=O)[C@@H]1CC(=O)N[C@@H](C)C(=O)N(C)[C@@H](C)C(=O)N(C)[C@@H](Cc2ccccc2)C(=O)N[C@@H]([C@@H](C)O)C(=O)N(C)[C@@H](Cc2ccccc2)C(=O)N[C@@H](CC(C)C)C(=O)N2CCC[C@H]2C(=O)N1)[C@@H](C)CC)C(C)C)C(=O)N1CCCCC1 [DP-922] (A[NMeA][NMeF]T[NMeF]LPDI[NMeL]FVI-Piperidide; lactam N-8)
Papp at 18 hours, 50 µM ([1]; pH 6.5): 0.12 ×10⁻⁶ cm/s
microsomal CLint at 1 uM ([2]; human, pH 7.4, CL NADPH(+)): 70 µL/min/mg

CC(C)C[C@H](NC(=O)[C@H](Cc1ccccc1)N(C)C(=O)[C@@H]1CC(=O)N[C@H](C)C(=O)N[C@@H](C(C)C)C(=O)N(C)[C@@H](Cc2ccccc2)C(=O)N(C)[C@@H](CC(C)C)C(=O)N(C)[C@@H](C)C(=O)N[C@@H]([C@@H](C)O)C(=O)N[C@@H](Cc2ccccc2)C(=O)N1)C(=O)N[C@@H](C)C(=O)N1CCCCC1 [DP-658] ([dA]V[NMeF][NMeL][NMeA]TFD[NMeF]LA-Piperidide; lactam N-8)
Papp at 18 hours, 50 µM [1, 3]: 32 ×10⁻⁶ cm/s
microsomal CLint at 1 uM [2, 4]: 86 µL/min/mg

CC[C@H](C)[C@@H]1NC(=O)[C@H](C(C)C)N(C)C(=O)[C@H](CC(C)C)N(C)C(=O)[C@H](Cc2ccccc2)NC(=O)[C@@H](C)N(C)C(=O)C[C@@H](C(=O)N(C)[C@@H](Cc2ccccc2)C(=O)N(C)[C@@H](Cc2ccccc2)C(=O)N[C@@H](C)C(=O)N2CCCCC2)NC(=O)[C@H](C)N(C)C(=O)[C@H]([C@@H](C)O)NC(=O)[C@H](CC(C)C)N(C)C(=O)CN(C)C1=O [DP-454] ([dNMeA]F[NMeL][NMeV]I[Sar][NMeL]T[NMeA]D[NMeF][NMeF]A-Piperidide; lactam N-10)
Papp at 18 hours, 50 µM [1, 3]: 14 ×10⁻⁶ cm/s
microsomal CLint at 1 uM [2, 4]: 50 µL/min/mg

CC(C)C[C@H]1C(=O)N(C)[C@@H](C(C)C)C(=O)N[C@@H]([C@@H](C)O)C(=O)N(C)CC(=O)N(C)[C@@H](C)C(=O)N(C)[C@@H](C)C(=O)N[C@@H](C(C)C)C(=O)N[C@H](C(=O)N2CCCCC2)CC(=O)N(C)[C@H](C)C(=O)N(C)[C@@H](C)C(=O)N[C@@H](C)C(=O)N(C)[C@@H](Cc2ccccc2)C(=O)N1C [DP-319] ([dNMeA][NMeA]A[NMeF][NMeL][NMeV]T[Sar][NMeA][NMeA]VD-Piperidide; lactam N-12)
Papp at 18 hours, 50 µM [1, 3]: 1 ×10⁻⁶ cm/s
microsomal CLint at 1 uM [2, 4]: 12 µL/min/mg

CC(C)C[C@H]1C(=O)N(C)[C@@H](C)C(=O)N[C@@H]([C@@H](C)O)C(=O)N(C)[C@@H](C)C(=O)N(C)[C@@H](C(C)C)C(=O)N[C@@H](COC(C)(C)C)C(=O)N[C@H](C(=O)N2CCCCC2)CC(=O)N(C)CCC(=O)N(C)[C@@H](Cc2ccccc2)C(=O)N[C@@H](C)C(=O)N(C)[C@@H](C)C(=O)N[C@@H](Cc2ccccc2)C(=O)N1C [DP-465] ([NMeβAla][NMeF]A[NMeA]F[NMeL][NMeA]T[NMeA][NMeV]S(tBu)D-Piperidide; lactam N-12)
Papp at 18 hours, 50 µM [1, 3]: 5.1 ×10⁻⁶ cm/s
microsomal CLint at 1 uM [2, 4]: 23 µL/min/mg

CC(C)C[C@@H]1NC(=O)[C@H](Cc2c[nH]cn2)NC(=O)[C@H](Cc2ccccc2)N(C)C(=O)[C@H](CC(C)C)NC(=O)[C@H](CC(C)C)N(C)C(=O)[C@H](Cc2ccccc2)NC(=O)[C@H](CC(C)C)N(C)C(=O)[C@H](CC(C)C)N(C)C(=O)[C@H](Cc2ccccc2)NC(=O)CN(C)C(=O)C[C@@H](C(=O)N(C)[C@@H](Cc2ccccc2)C(=O)N[C@@H](C)C(=O)N2CCCCC2)NC1=O [DP-592] ([Sar]F[NMeL][NMeL]F[NMeL]L[NMeF]HLD[NMeF]A-Piperidide; lactam N-11)
Papp at 18 hours, 50 µM [1, 3]: 0.18 ×10⁻⁶ cm/s
microsomal CLint at 1 uM [2, 4]: 5 µL/min/mg

CC[C@H](C)[C@H]1C(=O)N[C@H](C(=O)N2CCCCC2)CC(=O)N[C@H](C)C(=O)N(C)[C@@H](Cc2ccccc2)C(=O)N(C)[C@@H](CC(C)C)C(=O)N[C@@H]([C@@H](C)O)C(=O)N(C)CC(=O)N(C)[C@@H](CC(C)C)C(=O)N[C@@H](COC(C)(C)C)C(=O)N1C [DP-77] ([dA][NMeF][NMeL]T[Sar][NMeL]S(tBu)[NMeI]D-Piperidide; lactam N-9)
Papp at 18 hours, 50 µM ([1]; pH 6.5): 21 ×10⁻⁶ cm/s
microsomal CLint at 1 uM ([2]; human, pH 7.4, CL NADPH(+)): 33 µL/min/mg

CC[C@H](C)[C@@H]1NC(=O)[C@H](CC(C)C)NC(=O)CCN(C)C(=O)C[C@@H](C(=O)N2CCCCC2)NC(=O)[C@H](CC(C)C)NC(=O)[C@H](Cc2ccccc2)NC(=O)[C@H]([C@@H](C)O)NC(=O)[C@H](CC(C)C)NC(=O)[C@H](C(C)C)NC(=O)[C@H](CC(C)C)NC(=O)CN(C)C1=O [DP-411] ([NMeβAla]LI[Sar]LVLTFLD-Piperidide; lactam N-11)
Papp at 18 hours, 50 µM [1, 3]: 8.4 ×10⁻⁶ cm/s
microsomal CLint at 1 uM [2, 4]: 114 µL/min/mg
